Laboratory results taken from patent publication US7842671B1, “Peptidomimetic inhibitors of STAT activity and uses thereof” (University of South Florida, priority 2003, dated 2010).

What was measured:
Stat3 [1] = target: T1, Stat3 (Mus musculus, UniProt P42227); test: EMSA of Stat3 DNA-binding activity in nuclear extracts (hSIE probe); format: biochemical; set-up: nuclear extracts (prepared from epidermal growth factor (EGF)-stimulated fibroblasts); endogenous in cells; host or cells: NIH3T3 fibroblasts stimulated with EGF; settings: EMSA
T1 sequence (P42227 whole entry): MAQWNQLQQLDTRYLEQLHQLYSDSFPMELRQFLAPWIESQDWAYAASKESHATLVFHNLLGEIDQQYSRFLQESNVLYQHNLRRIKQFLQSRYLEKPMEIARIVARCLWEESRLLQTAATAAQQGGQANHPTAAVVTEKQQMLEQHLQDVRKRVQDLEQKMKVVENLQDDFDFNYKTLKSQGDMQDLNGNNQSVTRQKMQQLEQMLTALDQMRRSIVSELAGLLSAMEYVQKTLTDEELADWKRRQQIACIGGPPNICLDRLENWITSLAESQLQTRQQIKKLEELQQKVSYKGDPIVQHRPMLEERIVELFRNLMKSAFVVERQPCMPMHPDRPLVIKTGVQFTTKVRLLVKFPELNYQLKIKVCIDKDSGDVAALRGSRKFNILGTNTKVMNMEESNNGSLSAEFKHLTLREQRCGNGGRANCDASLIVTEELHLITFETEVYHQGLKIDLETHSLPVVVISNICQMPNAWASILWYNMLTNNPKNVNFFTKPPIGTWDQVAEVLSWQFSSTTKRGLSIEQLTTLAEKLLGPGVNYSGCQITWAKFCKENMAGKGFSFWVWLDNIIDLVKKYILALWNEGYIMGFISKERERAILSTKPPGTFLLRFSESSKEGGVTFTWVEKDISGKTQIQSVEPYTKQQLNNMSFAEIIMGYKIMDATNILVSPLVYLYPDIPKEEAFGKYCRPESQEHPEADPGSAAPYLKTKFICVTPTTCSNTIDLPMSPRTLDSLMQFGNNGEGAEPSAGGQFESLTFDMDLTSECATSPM
Procedure: (§1) Nuclear extract preparation and gel shift assays. Nuclear extracts were prepared from cell lines and used for electrophoretic mobility shift assay (EMSA) as previously described (Garcia, R. et al. (1997); Yu, C. L. et al. (1995); Turkson, J. et al. (1998)). In some cases, cells were pre-treated with peptidomimetics for the indicated times (12-48 h) prior to harvesting for nuclear extract preparation. In other studies, nuclear extracts were pre-incubated with peptidomimetics for 30 min at room temperature prior to incubation with radiolabeled probe. The ^32P-radiolabeled oligonucleotide probes used are hSIE (high affinity sis-inducible element, m67 variant, 5′-[…]-3′) (SEQ ID NO. 3) that binds both Stat1 and Stat3 (Garcia, R. et al. (1997); Wagner B. J. et al. (1990)) and MGFe (mammary gland factor element from the bovine β-casein gene promoter, 5′-[…]-3′) (SEQ ID NO. 4) that binds Stat1 and Stat5 (Gouilleux, F. et al. (1995); Seidel, H. M. et al. (1995)).
(§2) Peptidomimetics of the invention can be prepared by replacing prolyl or alanyl residue at the peptide bond that is N-terminal to the phosphotyrosine (Y*) of a peptide such as PY*L or AY*L with an organic substituent such as an optionally substituted aryl or heteroaryl group. The activities of STATs were measured in nuclear extracts (prepared from epidermal growth factor (EGF)-stimulated fibroblasts) as DNA-bound protein complexes by electrophoretic mobility shift assay (EMSA).
From densitometric analysis of band intensities, the IC50 values (concentration of peptidomimetic at which DNA-binding activity is reduced by 50%), which are reported in Table 3, were determined.

NIH3T3 = test: Apo-BrdU labeling and flow cytometry for apoptotic cells; format: cell-based, mouse; settings: NIH3T3, 1 mM, 48 h, flow cytometry
Procedure: (§3) Cell proliferation, soft-agar growth and Apo-BrdU labeling studies. Proliferating fibroblasts and human tumor cells were counted by phase-contrast microscopy for viable cells (using tyrpan blue exclusion). Colony formation assays in six-well dishes and quantification of colonies by iodonitrotetrazolium violet have been previously described (Turkson, J. et al. (1999)). Treatment of cells with inhibitors was initiated 1 day after seeding cells by adding 75 μl of medium with or without inhibitor, and repeated every two to three days. Apoptosis was measured by Apo-BrdU labeling and following the supplier's (PharMingen; San Diego, Calif.) instructions.
(§4) Because one of the functions of Stat3 is to protect transformed or tumor cells from apoptosis (Catlett-Falcone, R. et al. (1999b); Epling-Burnette, P. K. et al. (2001); Grandis, J. R. et al. (2000); Bowman, T. et al. (2000b); Bromberg, J. F. et al. (1999)), the ability of peptidomimetics of the invention (and PY*LKTK-MTS for comparison) (SEQ ID NO. 1) to induce apoptosis in Stat3-dependent transformed fibroblasts was evaluated. Viral Src-transformed NIH3T3/v-Src fibroblasts were treated with or without compounds for 48 h. Treated cells were then labeled with Apo-BrdU (PharMingen; San Diego, Calif.) for detection of DNA breaks.

NIH3T3/v-Src [2] = test: as above; format: cell-based, mouse; settings: 48 h
Procedure: as §3, §4

Stat5:Stat5 = test: EMSA of Stat5:Stat5 DNA-binding in nuclear extracts; format: biochemical, mouse; settings: nuclear extracts pre-incubated 30 min, mean and SD of at least 3 assays, read-out: IC50 values against STAT Dimers, Stat5:Stat5
Procedure: as §1
as §2, with “(EMSA). STAT-DNA complexes detected include Stat3:Stat3 homodimers (upper band), Stat1:Stat3 heterodimers (intermediate band) and Stat1:Stat1 homodimers (lower band) (FIG. 1A) when a ^32P-labeled hSIE oligonucleotide probe is used, or Stat5:Stat5 (upper band) and Stat1:Stat1 dimers (lower band) (FIG. 1B) when ^32P-labeled MGFe is used as a probe.” for “(EMSA).”

NIH3T3/v-Ras [3] = format: cell-based, mouse; settings: 1 mM
Procedure: as §3
(§5) Stat3 has an essential role in cell proliferation, and constitutively-active Stat3 is required for growth of transformed and tumor cells that harbor aberrant Stat3 signaling. Studies were performed to determine the effects of the peptidomimetic-mediated inhibition of Stat3 on cell proliferation using trypan blue exclusion for viable cell counts.

NIH3T3/v-Src [4] = format: cell-based, mouse; settings: 1 mM, four days
Procedure: as §3, §5

Stat3 [5] = target: T2, Stat3 (Homo sapiens, UniProt P40763); format: cell-based
T2 construct: endogenous in cells; host or cells: A549, MDA-MB-231, MDA-MB-435, MDA-MB-468
T2 sequence (P40763 whole entry): as the sequence (P42227 whole entry) above, with D760E counted along it
Procedure: as §1

Stat3 [6] = target: T1, Stat3; format: cell-based; set-up: nuclear extracts (prepared from epidermal growth factor (EGF)-stimulated fibroblasts); endogenous in cells; host or cells: NIH3T3 fibroblasts stimulated with EGF
NIH3T3/v-Src [7] = test: Soft-agar growth of v-Src-transformed fibroblasts; format: cell-based, mouse; settings: 1 mM every 2-3 days
Procedure: as §3
(§6) Previous studies with PY*LKTK-MTS (SEQ ID NO. 1) (Turkson, J. et al., 2001)) confirmed that inhibition of constitutive Stat3 activation blocks Src transformation (Turkson, J. et al. (1998); Turkson, J. et al., (1999); Bromberg, J. R. et al. (1998)).

NIH3T3/v-Ras [8] = test: Soft-agar growth of v-Ras-transformed fibroblasts; format: cell-based, mouse; settings: 1 mM every 2-3 days
Procedure: as §3, §6

Stat3 [9] = target: T1, Stat3; format: cell-based; set-up: nuclear extracts prepared from v-Src-transformed NIH3T3/v-Src; endogenous in cells; host or cells: NIH3T3/v-Src
Procedure: as §1

## CC(C)CC(NC(=O)C(Cc1ccc(OP(=O)(O)O)cc1)NC(=O)c1ccc(C#N)cc1)C(=O)O (centres unmarked) [ISS 610]
Stat3 [1]; in vitro
  increase in potency in inhibiting Stat3 DNA-binding activity compared to tripeptides PY*L or AY*L: 5 fold
Stat3 [1]; nuclear extracts
  effect on Stat3 DNA-binding activity in vitro (in words): potent disrupters of active Stat3
NIH3T3
  percent of apoptotic cells: 0.3%
NIH3T3/v-Src [2]; NIH3T3/v-Src, 1 mM, Apo-BrdU, flow cytometry
  percent of apoptotic cells: 21.4%
NIH3T3/v-Src [2]; Src-transformed fibroblasts
  incorporated BrdUTP compared to controls (in words): dramatic increases in incorporated BrdUTP
Stat5:Stat5
  IC50: 285 µM
NIH3T3/v-Ras [3]
  cell proliferation: no effect on cell proliferation
NIH3T3/v-Src [4]
  cell proliferation: significantly suppresses proliferation
Stat3 [5]
  Stat3 activation in breast carcinoma cells (EMSA): time-dependent reduction of Stat3 activation
  Stat3 activation in human non-small cell lung carcinoma cells (EMSA): time-dependent reduction of Stat3 activation
Stat3 [6]
  ligand (EGF)-induced STAT activation: preferential inhibition of activation of Stat3
NIH3T3/v-Src [7]
  growth in soft-agar suspension: significantly suppressed
NIH3T3/v-Ras [8]
  soft-agar growth: no effect
Stat3 [9]
  Stat3 activation in Src-transformed fibroblasts (EMSA): time-dependent reduction of Stat3 activation
